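Tested at 5 concentrations; 48 h exposure; 96-well plates; endpoints linearly interpolated, else capped at highest concentration. Here, GI50 denotes the concentration required for 50% inhibition of growth. The concentration for full growth arrest is given as TGI.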
What was measured:
Test in all cases: NCI-60 cell line screen, 48 h
[1] = tested on: SNB-75 CNS
[2] = tested on: SF-295 CNS
[3] = tested on: HOP-62 NSCLC
[4] = tested on: BT-549 breast
[5] = tested on: UACC-257 melanoma
[6] = tested on: HL-60(TB) leukemia
[7] = tested on: T-47D breast
[8] = tested on: NCI-H226 lung
[9] = tested on: SNB-19 CNS
[10] = tested on: HCC-2998 colon
[11] = tested on: LOX IMVI melanoma
[12] = tested on: M14 melanoma
[13] = tested on: KM12 colon
[14] = tested on: CCRF-CEM leukemia
[15] = tested on: HS 578T breast
[16] = tested on: MALME-3M melanoma
[17] = tested on: SR leukemia
[18] = tested on: SF-268 CNS
[19] = tested on: TK-10 renal
[20] = tested on: RPMI-8226 leukemia
[21] = tested on: SK-MEL-28 melanoma
[22] = tested on: OVCAR-4 ovarian
[23] = tested on: SF-539 CNS
[24] = tested on: MOLT-4 leukemia
[25] = tested on: SK-OV-3 ovarian
[26] = tested on: U251 CNS
[27] = tested on: DU-145 prostate
[28] = tested on: MCF7 breast
[29] = tested on: ACHN renal
[30] = tested on: HCT-15 colon
[31] = tested on: IGROV1 ovarian
[32] = tested on: COLO 205 colon
[33] = tested on: UO-31 renal
[34] = tested on: OVCAR-5 ovarian
[35] = tested on: OVCAR-8 ovarian
[36] = tested on: NCI/ADR-RES ovarian
[37] = tested on: NCI-H23 lung
[38] = tested on: HCT-116 colon
[39] = tested on: A498 renal
[40] = tested on: MDA-MB-435
[41] = tested on: 786-0 renal
[42] = tested on: K-562 leukemia
[43] = tested on: HT29 colon
[44] = tested on: HOP-92 NSCLC
[45] = tested on: RXF 393 renal
[46] = tested on: UACC-62 melanoma
[47] = tested on: SK-MEL-2 melanoma
[48] = tested on: SN12C renal
[49] = tested on: PC-3 prostate
[50] = tested on: OVCAR-3 ovarian
[51] = tested on: NCI-H460 lung
[52] = tested on: NCI-H522 lung
[53] = tested on: SW-620 colon
[54] = tested on: EKVX NSCLC
[55] = tested on: MDA-MB-231 breast
[56] = tested on: SK-MEL-5 melanoma
[57] = tested on: A549 NSCLC
[58] = tested on: CAKI-1 renal

Compound: O=c1oc2ccc(I)cc2c(=O)n1-c1ccc(F)cc1F
- GI50 [1]: 1.26 µM
- TGI [1]: 3.96 µM
- GI50 [2]: 1.87 µM
- TGI [2]: 3.74 µM
- GI50 [3]: 2.16 µM
- TGI [3]: 6.09 µM
- GI50 [4]: 1.91 µM
- TGI [4]: 4.98 µM
- GI50 [5]: 2.01 µM
- TGI [5]: 6.12 µM
- GI50 [6]: 2.04 µM
- TGI [6]: 5.12 µM
- GI50 [7]: 1.99 µM
- TGI [7]: 6 µM
- GI50 [8]: 2.41 µM
- TGI [8]: 12.7 µM
- GI50 [9]: 2.63 µM
- TGI [9]: > 100 µM
- GI50 [10]: 3.23 µM
- TGI [10]: 13.9 µM
- GI50 [11]: 2.51 µM
- TGI [11]: 10.9 µM
- GI50 [12]: 1.71 µM
- TGI [12]: 5.88 µM
- GI50 [13]: 2.51 µM
- TGI [13]: 6.8 µM
- GI50 [14]: 3.24 µM
- TGI [14]: 19.2 µM
- GI50 [15]: 2.04 µM
- TGI [15]: 6.55 µM
- GI50 [16]: 1.94 µM
- TGI [16]: 5.89 µM
- GI50 [17]: 3.02 µM
- TGI [17]: > 100 µM
- GI50 [18]: 2.86 µM
- TGI [18]: 27.1 µM
- GI50 [19]: 4.43 µM
- TGI [19]: 10.6 µM
- GI50 [20]: 1.49 µM
- TGI [20]: 4.83 µM
- GI50 [21]: 1.76 µM
- TGI [21]: 6.25 µM
- GI50 [22]: 2.07 µM
- TGI [22]: 8.97 µM
- GI50 [23]: 2.79 µM
- TGI [23]: 9.51 µM
- GI50 [24]: 2.39 µM
- TGI [24]: 6.88 µM
- GI50 [25]: 1.16 µM
- TGI [25]: 4.17 µM
- GI50 [26]: 2.64 µM
- TGI [26]: 19 µM
- GI50 [27]: 3.57 µM
- TGI [27]: 58.5 µM
- GI50 [28]: 2.38 µM
- TGI [28]: 49.1 µM
- GI50 [29]: 2.52 µM
- TGI [29]: 8.42 µM
- GI50 [30]: 2.71 µM
- TGI [30]: 11.4 µM
- GI50 [31]: 2.07 µM
- TGI [31]: 33.2 µM
- GI50 [32]: 3.39 µM
- TGI [32]: 13.1 µM
- GI50 [33]: 1.48 µM
- TGI [33]: 5.71 µM
- GI50 [34]: 3.96 µM
- TGI [34]: > 100 µM
- GI50 [35]: 2.86 µM
- TGI [35]: 13.2 µM
- GI50 [36]: 2.64 µM
- TGI [36]: 13.4 µM
- GI50 [37]: 2.14 µM
- TGI [37]: 7.94 µM
- GI50 [38]: 2.14 µM
- TGI [38]: 5.2 µM
- GI50 [39]: 1.19 µM
- TGI [39]: 2.92 µM
- GI50 [40]: 2.87 µM
- TGI [40]: 9.18 µM
- GI50 [41]: 3.03 µM
- TGI [41]: 9.67 µM
- GI50 [42]: 2.56 µM
- TGI [42]: > 100 µM
- GI50 [43]: 3.4 µM
- TGI [43]: 15.4 µM
- GI50 [44]: 0.7 µM
- TGI [44]: 3.78 µM
- GI50 [45]: 2.44 µM
- TGI [45]: 6.09 µM
- GI50 [46]: 1.31 µM
- TGI [46]: 4.19 µM
- GI50 [47]: 2.15 µM
- TGI [47]: 5.73 µM
- GI50 [48]: 2.36 µM
- TGI [48]: 8.91 µM
- GI50 [49]: 2.24 µM
- TGI [49]: 6.94 µM
- GI50 [50]: 2.67 µM
- TGI [50]: 13 µM
- GI50 [51]: 2.8 µM
- TGI [51]: 12.8 µM
- GI50 [52]: 2.65 µM
- TGI [52]: 10.2 µM
- GI50 [53]: 2.73 µM
- TGI [53]: 11.6 µM
- GI50 [54]: 1.98 µM
- TGI [54]: 8.1 µM
- GI50 [55]: 1.89 µM
- TGI [55]: 6.01 µM
- GI50 [56]: 1.53 µM
- TGI [56]: 3.03 µM
- GI50 [57]: 2.93 µM
- TGI [57]: 19.8 µM
- GI50 [58]: 1.8 µM
- TGI [58]: 6.6 µM

Source: PubChem BioAssay (NCI)
